In data set [1] the test system is T. brucei brucei parasites. The data set can be described thus: microbe, parasite or virus in culture. Conditions: Trypanosoma brucei, read-out: parasite growth inhibition GI50 T.b.b parasites.
The nature of the next data set: in vitro. To be noted: human, Jurkat cells.
Another data set addresses rhodesain (Trypanosoma brucei rhodesiense, UniProt Q95PM0). Kind of data set: biochemical. To be noted: read-out: rhodesain inhibition kinetics kinact/Ki.
A further data set has as its target cruzain (Trypanosoma cruzi, UniProt P25779). Conditions: initial survey of non-peptidic P2/P3 moieties.
The next data set relates to Jurkat cells. Conditions: at 10 uM.
The subject of data set [2] is T. brucei brucei parasites.

Chain of rhodesain (Q95PM0 1-450): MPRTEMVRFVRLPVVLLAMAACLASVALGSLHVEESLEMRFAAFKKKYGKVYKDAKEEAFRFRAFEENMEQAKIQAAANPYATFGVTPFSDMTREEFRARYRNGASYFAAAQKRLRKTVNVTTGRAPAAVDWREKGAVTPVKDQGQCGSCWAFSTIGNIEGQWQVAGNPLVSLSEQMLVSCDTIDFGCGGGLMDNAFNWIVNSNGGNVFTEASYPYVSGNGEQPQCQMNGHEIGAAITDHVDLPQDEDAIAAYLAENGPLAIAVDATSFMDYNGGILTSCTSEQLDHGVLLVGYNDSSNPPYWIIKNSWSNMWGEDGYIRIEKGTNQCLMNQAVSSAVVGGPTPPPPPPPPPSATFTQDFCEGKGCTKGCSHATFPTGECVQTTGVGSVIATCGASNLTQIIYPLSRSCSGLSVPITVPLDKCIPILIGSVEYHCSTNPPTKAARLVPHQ
Chain of cruzain (P25779 123-467): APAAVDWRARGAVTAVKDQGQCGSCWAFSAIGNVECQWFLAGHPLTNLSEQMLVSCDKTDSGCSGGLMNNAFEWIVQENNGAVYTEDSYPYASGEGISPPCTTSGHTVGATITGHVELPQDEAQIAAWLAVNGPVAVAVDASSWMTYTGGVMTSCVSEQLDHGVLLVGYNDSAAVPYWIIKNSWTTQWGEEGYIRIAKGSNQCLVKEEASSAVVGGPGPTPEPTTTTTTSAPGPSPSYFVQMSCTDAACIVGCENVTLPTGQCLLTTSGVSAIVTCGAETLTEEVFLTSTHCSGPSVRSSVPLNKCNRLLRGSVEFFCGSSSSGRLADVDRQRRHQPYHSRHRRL

Take `O=C(N[C@H](/C=C/S(=O)(=O)c1ccccc1)CCc1ccccc1)[C@@H]1CCCC[C@H]1C(=O)c1ccc(Cl)cc1` [7a]: the GI50 in data set [1] is 12 µM. Further, the half-maximal inhibitory concentration (IC50) in “in vitro” was above 100 µM. For the same molecule, the kinact/KI at rhodesain is 9750 M⁻¹ s⁻¹.

Consider `Cc1onc(-c2ccc(F)cc2)c1C(=O)N[C@H](/C=C/S(=O)(=O)c1ccccc1)CCc1ccccc1` [compound 5], for which the “enzyme activity (in words)” value on cruzain was “ineffective”.

Turning to `O=C(N[C@H](/C=C/S(=O)(=O)c1ccccc1)CCc1ccccc1)[C@H]1CCCC[C@@H]1C(=O)c1ccc(Cl)cc1` [7b], the kinact/KI on rhodesain is 2160 M⁻¹ s⁻¹.

Take `CN1CCN(C(=O)N[C@@H](Cc2ccccc2)C(=O)N[C@H](/C=C/S(=O)(=O)c2ccccc2)CCc2ccccc2)CC1` [K-777 (1)]: in the data set on Jurkat cells, the “cytotoxicity Jurkat cells, percent at single concentration” value is 3% at 10 uM.

In “in vitro”, `O=C(N[C@H](/C=C/S(=O)(=O)c1ccccc1)CCc1ccccc1)c1cc(-c2ccccc2)no1` [4a] came in with an IC50 above 100 µM. Besides, the kinact/KI at rhodesain was determined as 3610 M⁻¹ s⁻¹. The “effect against cultured parasites (in words)” value (“effect” below) in data set [2] is given as “ineffective against cultured parasites”.

In the data set “in vitro”, `O=C(N[C@H](/C=C/S(=O)(=O)c1ccccc1)CCc1ccccc1)c1cc(-c2ccncc2)no1` [4b] had an IC50 above 100 µM. The kinact/KI at rhodesain stood at 8590 M⁻¹ s⁻¹. In data set [2], the “effect” value was “antiparasitic effects at low micromolar concentration”.

Consider `CC(C)(C)c1cc(C(=O)N[C@H](/C=C/S(=O)(=O)c2ccccc2)CCc2ccccc2)n(Cc2ccccc2)n1` [compound 6], for which the “enzyme activity (in words)” value at cruzain is on record as “ineffective”.

Molecule `Cc1nc(-c2ccccc2)sc1C(=O)N[C@H](/C=C/S(=O)(=O)c1ccccc1)CCc1ccccc1` [3a] yielded an IC50 in “in vitro” above 100 µM. Besides, on rhodesain, the kinact/KI was 84000 M⁻¹ s⁻¹. Besides, the “effect” value in data set [2] is listed as “ineffective against cultured parasites”.

In “in vitro”, `O=C(N[C@H](/C=C/S(=O)(=O)c1ccccc1)CCc1ccccc1)c1cc(-c2ccccn2)no1` [4d] gave a 50% inhibitory concentration (IC50) above 100 µM. On rhodesain, the kinact/KI was 7720 M⁻¹ s⁻¹. Also, the “effect” value in data set [2] is reported as “antiparasitic effects at low micromolar concentration”.

For `Cc1nc(-c2cccnc2)sc1C(=O)N[C@H](/C=C/S(=O)(=O)c1ccccc1)CCc1ccccc1` [3b], in data set [2], the “effect” value is “antiparasitic effects at low micromolar concentration”.

On to `Cc1nc(-c2cnccn2)sc1C(=O)N[C@H](/C=C/S(=O)(=O)c1ccccc1)CCc1ccccc1` [3c], for which the half-maximal inhibitory concentration (IC50) in “in vitro” was above 100 µM. In addition, the kinact/KI at rhodesain came out at 25200 M⁻¹ s⁻¹. In data set [2], the “effect” value is recorded as “antiparasitic effects at low micromolar concentration”.

Regarding `O=C(N[C@H](/C=C/S(=O)(=O)c1ccccc1)CCc1ccccc1)c1cc(-c2cccnc2)no1` [4c], the half-maximal inhibitory concentration (IC50) in “in vitro” is above 100 µM.

In general, GI50 refers to the concentration giving 50% growth inhibition. The IC50 is the concentration that gives 50% inhibition. Low readings indicate higher potency, high ones lower potency.

For the origin of these results see publication PMC3760505 (Bioorganic & medicinal chemistry letters, 2009).
